Measured values reported in ChEMBL document CHEMBL5390253, “Discovery of Selective and Potent Macrocyclic CDK9 Inhibitors for the Treatment of Osimertinib-Resistant Non-Small-Cell Lung Cancer” (J Med Chem, 2023).
Activity calls are given as the source filed them. The rule behind the calls is not given here.

Experiments:
[1] = target: CDK9/cyclin T1 (Homo sapiens, UniProt P50750); assay: Inhibition of CDK9/Cyclin-T1 (unknown origin) preincubated for 10 mins followed by substrate addition and measured after 60 mins in presence of ATP by ADP-Glo reagent based assay; format: protein-complex assay
CDK9/cyclin T1, sequence (O60563 whole entry): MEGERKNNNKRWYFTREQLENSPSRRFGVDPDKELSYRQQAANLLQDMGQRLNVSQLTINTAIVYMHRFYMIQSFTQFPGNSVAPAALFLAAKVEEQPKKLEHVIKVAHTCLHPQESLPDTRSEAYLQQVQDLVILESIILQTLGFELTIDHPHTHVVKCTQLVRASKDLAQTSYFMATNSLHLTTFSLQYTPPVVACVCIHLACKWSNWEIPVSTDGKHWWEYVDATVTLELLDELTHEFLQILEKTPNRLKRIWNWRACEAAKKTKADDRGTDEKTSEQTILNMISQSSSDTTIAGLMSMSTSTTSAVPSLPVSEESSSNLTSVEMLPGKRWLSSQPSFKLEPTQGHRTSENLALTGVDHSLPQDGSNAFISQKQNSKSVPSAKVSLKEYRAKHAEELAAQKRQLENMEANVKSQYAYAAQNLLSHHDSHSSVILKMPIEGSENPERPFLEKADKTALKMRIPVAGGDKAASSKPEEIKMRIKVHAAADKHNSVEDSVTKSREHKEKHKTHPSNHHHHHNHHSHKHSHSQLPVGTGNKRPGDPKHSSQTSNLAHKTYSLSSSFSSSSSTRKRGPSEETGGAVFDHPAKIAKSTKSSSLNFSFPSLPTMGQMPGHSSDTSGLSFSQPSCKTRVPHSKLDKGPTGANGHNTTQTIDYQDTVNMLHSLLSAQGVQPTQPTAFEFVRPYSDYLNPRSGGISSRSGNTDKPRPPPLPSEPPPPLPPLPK
CDK9/cyclin T1, sequence (P50750 whole entry): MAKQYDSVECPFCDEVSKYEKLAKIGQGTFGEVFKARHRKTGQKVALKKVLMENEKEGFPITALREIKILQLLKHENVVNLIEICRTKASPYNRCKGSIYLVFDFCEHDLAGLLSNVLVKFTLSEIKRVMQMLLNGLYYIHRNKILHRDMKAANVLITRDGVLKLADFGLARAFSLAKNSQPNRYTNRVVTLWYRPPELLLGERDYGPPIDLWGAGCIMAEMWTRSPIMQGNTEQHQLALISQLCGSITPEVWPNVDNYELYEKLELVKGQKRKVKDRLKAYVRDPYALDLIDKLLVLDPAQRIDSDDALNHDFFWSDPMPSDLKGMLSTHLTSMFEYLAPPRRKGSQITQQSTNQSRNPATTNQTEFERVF

[2] = target: CDK2/Cyclin A2 (Homo sapiens, UniProt P24941); assay: Inhibition of CDK2/Cyclin A2 (unknown origin) preincubated for 10 mins followed by substrate addition and measured after 60 mins in presence of ATP by ADP-Glo reagent based assay; format: protein-complex assay
[3] = test system: HCC827; assay: Antiproliferative activity against human HCC827 cells incubated for 72 hrs by MTT assay; format: functional, cell-based; conditions: HCC827, 72 h
[4] = test system: NCI-H1975; assay: Antiproliferative activity against human NCI-H1975 cells incubated for 72 hrs by MTT assay; format: functional, cell-based; conditions: NCI-H1975, 72 h
[5] = Downregulation of Mcl-1 in human NCI-H1975 cells at 500 nM relative to control; format: functional
[6] = target: CDK9/cyclin T1 (Homo sapiens) (UniProt O60563+P50750); assay: Inhibition of CDK9/Cyclin-T1 (unknown origin) at 20 nM preincubated for 10 mins followed by substrate addition and measured after 60 mins in presence of ATP by ADP-Glo reagent based assay relative to control; format: protein-complex assay; conditions: time 70.0 min
[7] = target: CDK2/Cyclin A2 (Homo sapiens) (UniProt P24941+P20248); assay: Inhibition of CDK2/Cyclin A2 (unknown origin) at 100 nM preincubated for 10 mins followed by substrate addition and measured after 60 mins in presence of ATP by ADP-Glo reagent based assay relative to control; format: protein-complex assay; conditions: time 70.0 min
[8] = Antiproliferative activity against human Osimertinib-resistant NCI-H1975 cell incubated for 72 hrs by MTT assay; format: functional, cell-based; conditions: NCI-H1975, 72 h
[9] = test system: NCI-H1975; assay: Downregulation of Mcl-1 level in human Osimertinib-resistant NCI-H1975 cell at 2 uM measured after 8 hrs by Western blotting analysis; format: functional, cell-based
[10] = Induction of apoptosis in human Osimertinib-resistant NCI-H1975 cell assessed as viable cells at 500 nM measured after 16 hrs by Annexin V-FITC and PI staining based analysis (reference value: 94.9%); format: functional; conditions: read-out: Activity
[11] = Induction of apoptosis in human Osimertinib-resistant NCI-H1975 cell assessed as viable cells at 2000 nM measured after 16 hrs by Annexin V-FITC and PI staining based analysis (reference value: 94.9%); format: functional; conditions: read-out: Activity
[12] = Induction of apoptosis in human Osimertinib-resistant NCI-H1975 cell assessed as early apoptotic cells at 500 nM measured after 16 hrs by Annexin V-FITC and PI staining based analysis (reference value: 1.78%); format: functional
[13] = Induction of apoptosis in human Osimertinib-resistant NCI-H1975 cell assessed as early apoptotic cells at 2000 nM measured after 16 hrs by Annexin V-FITC and PI staining based analysis (reference value: 1.78%); format: functional
[14] = Induction of apoptosis in human Osimertinib-resistant NCI-H1975 cell assessed as late apoptotic cells at 500 nM measured after 16 hrs by Annexin V-FITC and PI staining based analysis (reference value: 2.84%); format: functional
[15] = Induction of apoptosis in human Osimertinib-resistant NCI-H1975 cell assessed as late apoptotic cells at 2000 nM measured after 16 hrs by Annexin V-FITC and PI staining based analysis (reference value: 2.84%); format: functional
[16] = Induction of apoptosis in human Osimertinib-resistant NCI-H1975 cell assessed as necrotic cells at 500 nM measured after 16 hrs by Annexin V-FITC and PI staining based analysis (reference value: 0.50%); format: functional
[17] = Induction of apoptosis in human Osimertinib-resistant NCI-H1975 cell assessed as necrotic cells at 2000 nM measured after 16 hrs by Annexin V-FITC and PI staining based analysis (reference value: 0.50%); format: functional
[18] = cells; conditions: Homo sapiens, Osimertinib-resistant HCC827AR cell, 72 h
[19] = test system: HCC827; assay: Downregulation of Mcl-1 level in human HCC827 cells measured after 8 hrs by Western blotting analysis; format: functional, cell-based; conditions: dose <= 0.5 µM
[20] = test system: NCI-H1975; assay: Downregulation of Mcl-1 level in human NCI-H1975 cells measured after 8 hrs by Western blotting analysis; format: functional, cell-based; conditions: dose <= 0.5 µM
[21] = test system: Osimertinib-resistant HCC827AR cell; assay: Downregulation of Mcl-1 level in human Osimertinib-resistant HCC827 cell at upto 0.5 uM measured after 8 hrs by Western blotting analysis; format: functional, cell-based
[22] = test system: NCI-H1975; assay: Downregulation of Mcl-1 level in human Osimertinib-resistant NCI-H1975 cell at upto 0.5 uM measured after 8 hrs by Western blotting analysis; format: functional, cell-based
[23] = Antiproliferative activity against human Osimertinib-resistant NCI-H1975 cell assessed as cell growth inhibition at 125 nM incubated for 72 hrs by MTT assay relative to control; format: functional; parameters: scale not given: the % may be the effect or the level left
[24] = Induction of apoptosis in human Osimertinib-resistant NCI-H1975 cell assessed as viable cells at 125 nM measured after 16 hrs by Annexin V-FITC and PI staining based analysis (reference value: 94.9%); format: functional; conditions: read-out: Activity
[25] = Induction of apoptosis in human Osimertinib-resistant NCI-H1975 cell assessed as early apoptotic cells at 125 nM measured after 16 hrs by Annexin V-FITC and PI staining based analysis (Rvb =1.78%); format: functional
[26] = Induction of apoptosis in human Osimertinib-resistant NCI-H1975 cell assessed as late apoptotic cells at 125 nM measured after 16 hrs by Annexin V-FITC and PI staining based analysis (Rvb =2.84%); format: functional
[27] = Induction of apoptosis in human Osimertinib-resistant NCI-H1975 cell assessed as necrotic cells at 125 nM measured after 16 hrs by Annexin V-FITC and PI staining based analysis (reference value: 0.50%); format: functional
[28] = target: Receptor-type tyrosine-protein kinase FLT3 (Homo sapiens) (UniProt P36888); assay: Inhibition of FLT3 (unknown origin) at 100 nM preincubated for 10 mins followed by substrate addition and measured after 60 mins in presence of ATP by ADP-Glo reagent based assay relative to control; conditions: time 70.0 min
Receptor-type tyrosine-protein kinase FLT3 (Homo sapiens), sequence (P36888 whole entry): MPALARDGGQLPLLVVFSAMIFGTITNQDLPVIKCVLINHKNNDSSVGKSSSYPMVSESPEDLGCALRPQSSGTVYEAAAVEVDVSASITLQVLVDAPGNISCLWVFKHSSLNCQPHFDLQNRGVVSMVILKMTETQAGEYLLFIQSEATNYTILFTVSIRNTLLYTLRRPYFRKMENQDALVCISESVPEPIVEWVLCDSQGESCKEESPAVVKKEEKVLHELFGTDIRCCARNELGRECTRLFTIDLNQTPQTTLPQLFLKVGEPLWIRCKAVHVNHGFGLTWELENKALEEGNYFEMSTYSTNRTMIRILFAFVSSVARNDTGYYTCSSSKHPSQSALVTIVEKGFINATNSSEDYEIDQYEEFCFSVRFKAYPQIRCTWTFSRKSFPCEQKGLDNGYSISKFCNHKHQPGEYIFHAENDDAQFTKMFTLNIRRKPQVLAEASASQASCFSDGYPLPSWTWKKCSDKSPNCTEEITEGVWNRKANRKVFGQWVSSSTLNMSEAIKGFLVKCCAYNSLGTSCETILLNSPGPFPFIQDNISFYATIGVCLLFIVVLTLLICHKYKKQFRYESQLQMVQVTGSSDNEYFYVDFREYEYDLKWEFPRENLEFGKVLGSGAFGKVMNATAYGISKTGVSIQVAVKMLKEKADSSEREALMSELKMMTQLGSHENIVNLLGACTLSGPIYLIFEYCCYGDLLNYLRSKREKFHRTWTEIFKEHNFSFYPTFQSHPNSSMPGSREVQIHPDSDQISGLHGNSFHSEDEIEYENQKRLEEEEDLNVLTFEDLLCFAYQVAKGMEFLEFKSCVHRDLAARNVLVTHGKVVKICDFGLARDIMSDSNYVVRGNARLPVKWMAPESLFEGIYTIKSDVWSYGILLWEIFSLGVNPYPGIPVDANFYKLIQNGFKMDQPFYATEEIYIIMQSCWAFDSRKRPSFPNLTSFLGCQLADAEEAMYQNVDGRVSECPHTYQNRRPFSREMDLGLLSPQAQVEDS

[29] = target: Tyrosine-protein kinase JAK2 (Homo sapiens) (UniProt O60674); assay: Inhibition of JAK2 (unknown origin) at 100 nM preincubated for 10 mins followed by substrate addition and measured after 60 mins in presence of ATP by ADP-Glo reagent based assay relative to control; conditions: time 70.0 min
Tyrosine-protein kinase JAK2 (Homo sapiens), sequence (O60674 whole entry): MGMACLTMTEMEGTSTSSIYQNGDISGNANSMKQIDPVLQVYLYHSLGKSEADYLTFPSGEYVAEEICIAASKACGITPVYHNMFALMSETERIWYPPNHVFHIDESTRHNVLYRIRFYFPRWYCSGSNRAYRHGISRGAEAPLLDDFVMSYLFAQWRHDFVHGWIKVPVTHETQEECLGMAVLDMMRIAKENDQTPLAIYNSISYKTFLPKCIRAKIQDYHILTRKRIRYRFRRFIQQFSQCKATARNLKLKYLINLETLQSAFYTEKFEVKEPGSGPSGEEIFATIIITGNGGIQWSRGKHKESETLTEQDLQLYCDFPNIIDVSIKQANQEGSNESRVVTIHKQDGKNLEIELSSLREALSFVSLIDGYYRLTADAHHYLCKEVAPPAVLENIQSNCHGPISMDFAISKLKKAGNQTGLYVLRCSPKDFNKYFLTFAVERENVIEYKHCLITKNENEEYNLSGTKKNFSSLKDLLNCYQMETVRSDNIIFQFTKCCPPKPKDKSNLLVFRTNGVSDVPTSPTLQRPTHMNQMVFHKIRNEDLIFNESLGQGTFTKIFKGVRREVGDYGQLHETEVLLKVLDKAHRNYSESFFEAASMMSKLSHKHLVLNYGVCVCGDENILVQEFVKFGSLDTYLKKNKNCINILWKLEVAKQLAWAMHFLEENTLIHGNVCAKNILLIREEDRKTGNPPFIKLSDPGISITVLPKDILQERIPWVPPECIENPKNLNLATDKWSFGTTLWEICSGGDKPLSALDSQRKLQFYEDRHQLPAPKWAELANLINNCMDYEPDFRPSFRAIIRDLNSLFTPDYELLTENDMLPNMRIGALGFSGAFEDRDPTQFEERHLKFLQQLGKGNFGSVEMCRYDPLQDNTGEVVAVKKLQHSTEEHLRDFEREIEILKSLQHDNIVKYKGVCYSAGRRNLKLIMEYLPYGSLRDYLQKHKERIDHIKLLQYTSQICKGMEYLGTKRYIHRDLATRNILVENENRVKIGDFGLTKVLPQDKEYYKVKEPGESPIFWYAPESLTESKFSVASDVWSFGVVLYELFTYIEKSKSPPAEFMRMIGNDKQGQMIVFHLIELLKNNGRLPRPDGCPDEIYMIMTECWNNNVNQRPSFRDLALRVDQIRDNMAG

| SMILES | IC50 [1] | IC50 [2] | IC50 [3] | IC50 [4] | Activity [5] | also measured |
| --- | --- | --- | --- | --- | --- | --- |
| O=C(NC1CCN(C2CCOCC2)CC1)c1ccc2cc1OCCCCCCOc1cc(ccc1F)-c1nc(ncc1F)N2 | 2.6 nM | 117 nM | 255 nM | 373 nM | 54.4% | – |
| O=C(c1ccc2cc1OCCCCOc1cc(ccc1F)-c1nc(ncc1F)N2)N1CCNCC1 | – | – | 2470 nM | 1060 nM | – | inhibition [6]: 45.7%; inhibition [7]: 32.9% |
| COc1cc(F)ccc1-c1ncnc(Nc2cccc(C[S@](C)(=N)=O)c2)n1 [ATUVECICLIB] | – | – | – | – | – | IC50 [8]: 1080 nM; Activity [9]: Active; viability at 0.5 µM [10]: 91.3%; viability at 2 µM [11]: 91.9%; Activity [12]: 3.16%; Activity [13]: 2.58%; Activity [14]: 4.49%; Activity [15]: 3.66%; Activity [16]: 1.06%; Activity [17]: 1.84%; IC50 [18]: 990 nM |
| CN(C)CCNC(=O)c1ccc2cc1OCCCCOc1cc(ccc1F)-c1nc(ncc1F)N2 | 1.1 nM | 3.2 nM | 31 nM | 26 nM | 82.6% | – |
| O=C(NCCN1CCOCC1)c1ccc2cc1COCCCCOCc1cc(ccc1F)-c1nc(ncc1F)N2 | 7.7 nM | 140 nM | – | 613 nM | – | – |
| O=C(c1ccc2cc1OCCCCOc1cc(ccc1F)-c1nc(ncc1F)N2)N1CCCNCC1 | – | – | 1940 nM | 1180 nM | -27% | inhibition [6]: 27%; inhibition [7]: 21.2% |
| C=CC(=O)Nc1cc(Nc2nccc(-c3cn(C)c4ccccc34)n2)c(OC)cc1N(C)CCN(C)C [OSIMERTINIB] | – | – | 57 nM | […] | – | IC50 [8]: 4690 nM; Activity [19]: Dose-Dependent Effect; Activity [20]: Dose-Dependent Effect; Activity [21]: inactive; Activity [22]: inactive; Activity [23]: 10%; viability at 0.125 µM [24]: 92.4%; Activity [25]: 2.52%; Activity [26]: 1.8%; Activity [27]: 3.25% |
| O=C(NCCN1CCOCC1)c1ccc2cc1OCCCCOc1cc(ccc1F)-c1nc(ncc1F)N2 | 0.9 nM | 34.2 nM | 182 nM | 21 nM | 95.6% | inhibition [28]: 77.3%; inhibition [29]: 79.7% |
| O=C(NC1CCOCC1)c1ccc2cc1OCCCCOc1cc(ccc1F)-c1nc(ncc1F)N2 | 2.8 nM | 95.1 nM | 181 nM | 283 nM | 99% | inhibition [28]: 60.9%; inhibition [29]: 73.2% |
| CN1CCN(CCNC(=O)c2ccc3cc2OCCCCCCOc2cc(ccc2F)-c2nc(ncc2F)N3)CC1 | 2.3 nM | 25.4 nM | – | 143 nM | – | – |
| COc1cc(F)ccc1-c1ncnc(Nc2ccc(C(=O)NCCN(C)C)cc2)n1 | 3.1 nM | 24 nM | 340000 nM | 254000 nM | – | – |
| O=C(NC1CCCNCC1)c1ccc2cc1OCCCCOc1cc(ccc1F)-c1nc(ncc1F)N2 (stereo unspecified) | 3.1 nM | 54.3 nM | 403 nM | 116 nM | 21.1% | – |
| O=C(NCC1CCNCC1)c1ccc2cc1OCCCCOc1cc(ccc1F)-c1nc(ncc1F)N2 | 2.1 nM | 15 nM | 343 nM | 336 nM | 1.6% | – |
| O=C(c1ccc2cc1OCCCCOc1cc(ccc1F)-c1nc(ncc1F)N2)N1CCC(N2CCOCC2)CC1 | – | – | 4780 nM | 2680 nM | -34% | inhibition [6]: 20.9%; inhibition [7]: 9.1% |
| O=C(c1ccc2cc1OCCCCOc1cc(ccc1F)-c1nc(ncc1F)N2)N1CCC(N2CCOCC2)C1 (stereo unspecified) | – | – | 5170 nM | 1870 nM | – | inhibition [6]: 27.6%; inhibition [7]: 11.7% |
| O=C(NCCN1CCOCC1)c1ccc2cc1OCCCCCOc1cc(ccc1F)-c1nc(ncc1F)N2 | 1.1 nM | 66.2 nM | 267 nM | 115 nM | 73.4% | inhibition [28]: 62.8%; inhibition [29]: 56.5% |
| O=C(NCCN1CCOCC1)c1ccc2cc1OCCOCCOc1cc(ccc1F)-c1nc(ncc1F)N2 | 2.1 nM | 10 nM | 52 nM | 54 nM | – | inhibition [28]: 68.7%; inhibition [29]: 71.4% |
| O=C(NC1CCC(N2CCOCC2)CC1)c1ccc2cc1OCCCCCCOc1cc(ccc1F)-c1nc(ncc1F)N2 (stereo unspecified) | 2 nM | 715 nM | 421 nM | 814 nM | 64.6% | – |
| CN1CCC(NC(=O)c2ccc3cc2OCCCCCCOc2cc(ccc2F)-c2nc(ncc2F)N3)CC1 | 3.2 nM | 30.7 nM | – | 135 nM | – | – |
